{
  "source": "patent US20080069785A1",
  "about": "“PEST-CONTROL COMPOSITIONS, AND METHODS AND PRODUCTS UTILIZING SAME” (priority 2004, published 2008)",
  "system": "cockroaches (Blattella germanica)",
  "test": "Weeklong surface area toxicity test on cockroaches (Example 19)",
  "format": "in vivo",
  "experimental": "In order determine the toxicity of the formulation to the insect after application to a surface over a period of time, the following test was performed. […] Cockroaches were placed in the cups on the first day following the application of the formulations, on the third day following the application of the formulations, and on the sixth day following the application of the formulations in order to monitor the toxicity of the formulations after a period of time had elapsed. The mortality of the cockroaches was then recorded at the time intervals noted. The five cockroaches placed in each cup were one week old cockroaches (Blattella germanica) which had been reared at twenty seven degrees centigrade, at sixty five percent relative humidity, and on a twelve hour light to dark photoperiod. Each of the cups had Fluon®AD1 treated sides to prevent the escape of the cockroaches.",
  "data": [
    {"smiles": "CCCCCCCCCC(C)=O", "note": "[Undecanone, 2-Undecanone]", "values": [
      {"measurement": "cockroaches alive (of five per cup)", "setting": "3-4 days treatment, 0.09 μL/cm^2 (5 μL), 23 h", "result": 5},
      {"measurement": "cockroaches alive (of five per cup)", "setting": "3-4 days treatment, 0.09 μL/cm^2 (5 μL), 24 h", "result": 5},
      {"measurement": "cockroaches alive (of five per cup)", "setting": "3-4 days treatment, 0.09 μL/cm^2 (5 μL), 27 h", "result": 5},
      {"measurement": "cockroaches alive (of five per cup)", "setting": "3-4 days treatment, 0.09 μL/cm^2 (5 μL), 30 h", "result": 5},
      {"measurement": "cockroaches alive (of five per cup)", "setting": "3-4 days treatment, 0.19 μL/cm^2 (10 μL), 5 min", "result": 5},
      {"measurement": "cockroaches alive (of five per cup)", "setting": "3-4 days treatment, 0.19 μL/cm^2 (10 μL), 10 min", "result": 5},
      {"measurement": "cockroaches alive (of five per cup)", "setting": "3-4 days treatment, 0.19 μL/cm^2 (10 μL), 15 min", "result": 5},
      {"measurement": "cockroaches alive (of five per cup)", "setting": "3-4 days treatment, 0.19 μL/cm^2 (10 μL), 30 min", "result": 5},
      {"measurement": "cockroaches alive (of five per cup)", "setting": "3-4 days treatment, 0.19 μL/cm^2 (10 μL), 60 min", "result": 5},
      {"measurement": "cockroaches alive (of five per cup)", "setting": "3-4 days treatment, 0.19 μL/cm^2 (10 μL), 90 min", "result": 5},
      {"measurement": "cockroaches alive (of five per cup)", "setting": "3-4 days treatment, 0.19 μL/cm^2 (10 μL), 2 h", "result": 5},
      {"measurement": "cockroaches alive (of five per cup)", "setting": "3-4 days treatment, 0.19 μL/cm^2 (10 μL), 4 h", "result": 5},
      {"measurement": "cockroaches alive (of five per cup)", "setting": "3-4 days treatment, 0.19 μL/cm^2 (10 μL), 23 h", "result": 5},
      {"measurement": "cockroaches alive (of five per cup)", "setting": "3-4 days treatment, 0.19 μL/cm^2 (10 μL), 24 h", "result": 5},
      {"measurement": "cockroaches alive (of five per cup)", "setting": "3-4 days treatment, 0.19 μL/cm^2 (10 μL), 27 h", "result": 5},
      {"measurement": "cockroaches alive (of five per cup)", "setting": "3-4 days treatment, 0.19 μL/cm^2 (10 μL), 30 h", "result": 5},
      {"measurement": "cockroaches alive (of five per cup)", "setting": "3-4 days treatment, 0.95 μL/cm^2 (50 μL), 5 min", "result": 5},
      {"measurement": "cockroaches alive (of five per cup)", "setting": "3-4 days treatment, 0.95 μL/cm^2 (50 μL), 10 min", "result": 5},
      {"measurement": "cockroaches alive (of five per cup)", "setting": "3-4 days treatment, 0.95 μL/cm^2 (50 μL), 15 min", "result": 5},
      {"measurement": "cockroaches alive (of five per cup)", "setting": "3-4 days treatment, 0.95 μL/cm^2 (50 μL), 30 min", "result": 5},
      {"measurement": "cockroaches alive (of five per cup)", "setting": "3-4 days treatment, 0.95 μL/cm^2 (50 μL), 60 min", "result": 5},
      {"measurement": "cockroaches alive (of five per cup)", "setting": "3-4 days treatment, 0.95 μL/cm^2 (50 μL), 90 min", "result": 5},
      {"measurement": "cockroaches alive (of five per cup)", "setting": "3-4 days treatment, 0.95 μL/cm^2 (50 μL), 2 h", "result": 3},
      {"measurement": "cockroaches alive (of five per cup)", "setting": "3-4 days treatment, 0.95 μL/cm^2 (50 μL), 4 h", "result": 2},
      {"measurement": "cockroaches alive (of five per cup)", "setting": "3-4 days treatment, 0.95 μL/cm^2 (50 μL), 23 h", "result": 1},
      {"measurement": "cockroaches alive (of five per cup)", "setting": "3-4 days treatment, 0.95 μL/cm^2 (50 μL), 24 h", "result": 1},
      {"measurement": "cockroaches alive (of five per cup)", "setting": "3-4 days treatment, 0.95 μL/cm^2 (50 μL), 27 h", "result": 0},
      {"measurement": "cockroaches alive (of five per cup)", "setting": "3-4 days treatment, 0.95 μL/cm^2 (50 μL), 30 h", "result": 0},
      {"measurement": "cockroaches alive (of five per cup)", "setting": "6-7 days treatment, 0.02 μL/cm^2 (1 μL), 5 min", "result": 5},
      {"measurement": "cockroaches alive (of five per cup)", "setting": "6-7 days treatment, 0.02 μL/cm^2 (1 μL), 10 min", "result": 5},
      {"measurement": "cockroaches alive (of five per cup)", "setting": "6-7 days treatment, 0.02 μL/cm^2 (1 μL), 15 min", "result": 5},
      {"measurement": "cockroaches alive (of five per cup)", "setting": "6-7 days treatment, 0.02 μL/cm^2 (1 μL), 30 min", "result": 5},
      {"measurement": "cockroaches alive (of five per cup)", "setting": "6-7 days treatment, 0.02 μL/cm^2 (1 μL), 60 min", "result": 5},
      {"measurement": "cockroaches alive (of five per cup)", "setting": "6-7 days treatment, 0.02 μL/cm^2 (1 μL), 90 min", "result": 5},
      {"measurement": "cockroaches alive (of five per cup)", "setting": "6-7 days treatment, 0.02 μL/cm^2 (1 μL), 2 h", "result": 5},
      {"measurement": "cockroaches alive (of five per cup)", "setting": "6-7 days treatment, 0.02 μL/cm^2 (1 μL), 4 h", "result": 5},
      {"measurement": "cockroaches alive (of five per cup)", "setting": "6-7 days treatment, 0.02 μL/cm^2 (1 μL), 21.5 h", "result": 5},
      {"measurement": "cockroaches alive (of five per cup)", "setting": "6-7 days treatment, 0.02 μL/cm^2 (1 μL), 22 h", "result": 5},
      {"measurement": "cockroaches alive (of five per cup)", "setting": "6-7 days treatment, 0.02 μL/cm^2 (1 μL), 23 h", "result": 5},
      {"measurement": "cockroaches alive (of five per cup)", "setting": "6-7 days treatment, 0.02 μL/cm^2 (1 μL), 24 h", "result": 5},
      {"measurement": "cockroaches alive (of five per cup)", "setting": "6-7 days treatment, 0.02 μL/cm^2 (1 μL), 27 h", "result": 5},
      {"measurement": "cockroaches alive (of five per cup)", "setting": "6-7 days treatment, 0.02 μL/cm^2 (1 μL), 29 h", "result": 5},
      {"measurement": "cockroaches alive (of five per cup)", "setting": "6-7 days treatment, 0.02 μL/cm^2 (1 μL), 30 h", "result": 5},
      {"measurement": "cockroaches alive (of five per cup)", "setting": "6-7 days treatment, 0.02 μL/cm^2 (1 μL), 31 h", "result": 5},
      {"measurement": "cockroaches alive (of five per cup)", "setting": "6-7 days treatment, 0.09 μL/cm^2 (5 μL), 5 min", "result": 5},
      {"measurement": "cockroaches alive (of five per cup)", "setting": "6-7 days treatment, 0.09 μL/cm^2 (5 μL), 10 min", "result": 5},
      {"measurement": "cockroaches alive (of five per cup)", "setting": "6-7 days treatment, 0.09 μL/cm^2 (5 μL), 15 min", "result": 5},
      {"measurement": "cockroaches alive (of five per cup)", "setting": "6-7 days treatment, 0.09 μL/cm^2 (5 μL), 30 min", "result": 5},
      {"measurement": "cockroaches alive (of five per cup)", "setting": "6-7 days treatment, 0.09 μL/cm^2 (5 μL), 60 min", "result": 5},
      {"measurement": "cockroaches alive (of five per cup)", "setting": "6-7 days treatment, 0.09 μL/cm^2 (5 μL), 90 min", "result": 5},
      {"measurement": "cockroaches alive (of five per cup)", "setting": "6-7 days treatment, 0.09 μL/cm^2 (5 μL), 2 h", "result": 5},
      {"measurement": "cockroaches alive (of five per cup)", "setting": "6-7 days treatment, 0.09 μL/cm^2 (5 μL), 4 h", "result": 5},
      {"measurement": "cockroaches alive (of five per cup)", "setting": "6-7 days treatment, 0.09 μL/cm^2 (5 μL), 21.5 h", "result": 5},
      {"measurement": "cockroaches alive (of five per cup)", "setting": "6-7 days treatment, 0.09 μL/cm^2 (5 μL), 22 h", "result": 5},
      {"measurement": "cockroaches alive (of five per cup)", "setting": "6-7 days treatment, 0.09 μL/cm^2 (5 μL), 23 h", "result": 5},
      {"measurement": "cockroaches alive (of five per cup)", "setting": "6-7 days treatment, 0.09 μL/cm^2 (5 μL), 24 h", "result": 5},
      {"measurement": "cockroaches alive (of five per cup)", "setting": "6-7 days treatment, 0.09 μL/cm^2 (5 μL), 27 h", "result": 5},
      {"measurement": "cockroaches alive (of five per cup)", "setting": "6-7 days treatment, 0.09 μL/cm^2 (5 μL), 29 h", "result": 5},
      {"measurement": "cockroaches alive (of five per cup)", "setting": "6-7 days treatment, 0.09 μL/cm^2 (5 μL), 30 h", "result": 5},
      {"measurement": "cockroaches alive (of five per cup)", "setting": "6-7 days treatment, 0.09 μL/cm^2 (5 μL), 31 h", "result": 5},
      {"measurement": "cockroaches alive (of five per cup)", "setting": "6-7 days treatment, 0.19 μL/cm^2 (10 μL), 5 min", "result": 5},
      {"measurement": "cockroaches alive (of five per cup)", "setting": "6-7 days treatment, 0.19 μL/cm^2 (10 μL), 10 min", "result": 5},
      {"measurement": "cockroaches alive (of five per cup)", "setting": "6-7 days treatment, 0.19 μL/cm^2 (10 μL), 15 min", "result": 5},
      {"measurement": "cockroaches alive (of five per cup)", "setting": "6-7 days treatment, 0.19 μL/cm^2 (10 μL), 30 min", "result": 5},
      {"measurement": "cockroaches alive (of five per cup)", "setting": "6-7 days treatment, 0.19 μL/cm^2 (10 μL), 60 min", "result": 5},
      {"measurement": "cockroaches alive (of five per cup)", "setting": "6-7 days treatment, 0.19 μL/cm^2 (10 μL), 90 min", "result": 5},
      {"measurement": "cockroaches alive (of five per cup)", "setting": "6-7 days treatment, 0.19 μL/cm^2 (10 μL), 2 h", "result": 5},
      {"measurement": "cockroaches alive (of five per cup)", "setting": "6-7 days treatment, 0.19 μL/cm^2 (10 μL), 4 h", "result": 5},
      {"measurement": "cockroaches alive (of five per cup)", "setting": "6-7 days treatment, 0.19 μL/cm^2 (10 μL), 21.5 h", "result": 5},
      {"measurement": "cockroaches alive (of five per cup)", "setting": "6-7 days treatment, 0.19 μL/cm^2 (10 μL), 22 h", "result": 5},
      {"measurement": "cockroaches alive (of five per cup)", "setting": "6-7 days treatment, 0.19 μL/cm^2 (10 μL), 23 h", "result": 5},
      {"measurement": "cockroaches alive (of five per cup)", "setting": "6-7 days treatment, 0.19 μL/cm^2 (10 μL), 24 h", "result": 5},
      {"measurement": "cockroaches alive (of five per cup)", "setting": "6-7 days treatment, 0.19 μL/cm^2 (10 μL), 27 h", "result": 5},
      {"measurement": "cockroaches alive (of five per cup)", "setting": "6-7 days treatment, 0.19 μL/cm^2 (10 μL), 29 h", "result": 5},
      {"measurement": "cockroaches alive (of five per cup)", "setting": "6-7 days treatment, 0.19 μL/cm^2 (10 μL), 30 h", "result": 5},
      {"measurement": "cockroaches alive (of five per cup)", "setting": "6-7 days treatment, 0.19 μL/cm^2 (10 μL), 31 h", "result": 5},
      {"measurement": "cockroaches alive (of five per cup)", "setting": "6-7 days treatment, 0.95 μL/cm^2 (50 μL), 21.5 h", "result": 2},
      {"measurement": "cockroaches alive (of five per cup)", "setting": "6-7 days treatment, 0.95 μL/cm^2 (50 μL), 22 h", "result": 2},
      {"measurement": "cockroaches alive (of five per cup)", "setting": "6-7 days treatment, 0.95 μL/cm^2 (50 μL), 23 h", "result": 2},
      {"measurement": "cockroaches alive (of five per cup)", "setting": "6-7 days treatment, 0.95 μL/cm^2 (50 μL), 24 h", "result": 2}
    ]}
  ]
}
